Like-named read-outs stand apart in the source and are kept apart here.
Key:
[1] = Related substances after acceleration storage; assay type: physicochemical; details: C66 substance Batch C66-S-ZS-03-09, comparison
Method: (§1) Acceleration test conditions: aluminum foil bag packaging, sealed, 40±2° C., 75%±5% RH, sample placement;
(§2) Samples: Solid dispersions obtained in Examples 1, 2, and 3.

[2] = Saturated concentration of C66 in SDS and Tween 80 solutions; assay type: physicochemical
Description: The inventors also investigated the solubility of C66 in sodium dodecyl sulfate (SDS) and Tween 80 (T80). According to the recommended usage of surfactants specified in Handbook of Pharmaceutical Excipients, and recommendations from the National Medical Products Administration of China and the U.S. Food and Drug Administration (FDA), a proportion of surfactants in the solution is 1%-3%.

[3] = Solubility of C66 in solvents (Table 1); assay type: physicochemical
[4] = Permeability of C66 (previous studies); assay type: in vitro ADME
in vivo = details: male, Beagle, dog
Method: (§3) 6 male Beagle dogs (with a weight of 8.00-8.62 kg per dog) that passed the quarantine were selected and divided into 2 groups by weight according to a completely random method, that is, oral administration group, and intravenous injection group, with 3 dogs in each group, and single gavage administration were given. The dogs were subjected to fasting but not water deprivation 12 hours before administration, and were provided with food 4 hours after administration, with free access to water. For the oral administration group, 1% sodium carboxymethyl cellulose (CMC-Na) was mixed with C66 substance to prepare a 0.6 mg/mL suspension for gavage. For the intravenous injection group, a required amount of C66 substance was weighed and dissolved in a solution containing 5% DMSO+10% polyethylene glycol-15 hydroxystearate+85% (20% 2-hydroxypropyl-β-cyclodextrin) to prepare a 1 mg/mL clear solution. Blood samples were collected at different time points after administration, and a concentration of C66 in the blood samples were detected by a liquid chromatograph mass spectrometer to obtain a drug concentration-time curve.
(§4) Plasma samples were analyzed using an AB Sciex 5500 (LC-MS/MS) with an electrospray ionization source (ESI), and monitored with a multiple reaction monitoring (MRM) scanning method in a positive ion mode. A gradient elution was performed with 0.1% formic acid aqueous solution-acetonitrile as a mobile phase. Unknown samples were subjected to protein precipitation using methanol before injection, with a flow rate of 0.3 mL/min. Chromatographic column: Kinetex® 1.7 μm, XB-C18 2.1*100 mm. Guard column: Phenomenex UHPLC C18 2.1 mm. A linear range of C66 was 1.000-288.0 ng/ml, with a lower limit of quantitation of 1.000 ng/mL.
(§5) The dogs were subjected to fasting but not water deprivation 12 hours before administration, and were provided with food 4 hours after administration, with free access to water.
(§6) For the oral administration groups, the blood collection time points were before administration and 15 min, 30 min, 45 min, 1 hour, 2 hours, 3 hours, 4 hours, 6 hours, 8 hours, 10 hours and 24 hours after administration, and 0.5-1.0 mL of blood were collected from a small saphenous vein outside a hind limb or a cephalic vein inside a forelimb, and placed into a heparin sodium anticoagulation tube. For the Intravenous injection group, the blood collection time points were before administration and 5 min, 15 min, 30 min, 45 min, 1 hour, 2 hours, 3 hours, 4 hours, 8 hours, 10 hours and 24 hours after administration, and 0.5-1.0 mL of blood were collected from a small saphenous vein outside a hind limb or a cephalic vein inside a forelimb, and placed into a heparin sodium anticoagulation tube. Main pharmacokinetic parameters such as AUC0-t, AUC0-∞, and t1/2 were calculated using a Phoenix WinNonlin 8.0 software.
(§7) Oral administration group 1: A required amount of C66 substance was weighed, and an appropriate amount of 1% CMC-Na was added to prepare a 0.6 mg/mL suspension.
(§8) Oral administration group 2: A required amount of C66 solid dispersion was weighed, and an appropriate amount of 1% CMC-Na was added to prepare a 0.6 mg/mL suspension.
(§9) Intravenous injection group: A required amount of C66 substance was weighed and dissolved in a solution containing 5% DMSO+10% polyethylene glycol-15 hydroxystearate+85% (20% 2-hydroxypropyl-β-cyclodextrin) to prepare a 1 mg/mL clear solution.

[5] = Solubility of C66 in buffer solutions of different pH (37° C. shaker 24 hours, HPLC); assay type: physicochemical; details: buffer solutions pH 1.0, 1.2, 2.0, 4.0, 5.0, 6.0, 6.8, 7.4
Method: In addition, the inventors also prepared a series of buffer solutions (pH 1.0, pH 1.2, pH 2.0, pH 4.0, pH 5.0, pH 6.0, pH 6.8, and pH 7.4) according to the recommended conditions of the Pharmacopoeia, to investigate the solubility of C66 under different pH conditions. Excess C66 powder was added to each of the solutions to obtain a mixture, the mixture was shaken in a 37° C. shaker for 24 hours. The C66 concentration was then measured using high-performance liquid chromatography.

[6] = male, Beagle, dog, in vivo
Method: as §3, §4, §5, §6, §7, §8, §9

[7] = Content determination after acceleration storage; assay type: physicochemical; details: C66 substance Batch C66-S-ZS-03-09, comparison
Method: as §1, §2

[8] = Cumulative dissolution of pulverized C66 substance in surfactant aqueous solutions; assay type: physicochemical; details: 60 min
Method: None of them reached the quality control requirement that the cumulative dissolution rate could be equal to or greater than 85% in 30 min-60 min.

For `O=C1/C(=C/c2ccccc2C(F)(F)F)CCC/C1=C\c1ccccc1C(F)(F)F` [Example C66], the Isomer [1] was 0.038%, the “Other largest unknown impurities” value [1] was 0.025% and the “Process impurities 1” value [1] was 0.188%. For the same compound, the “Process impurities 2” value [1] was 0.385%, the “Saturated concentration of C66” value ([2]; 1% SDS solution) was 5.158 µg/mL and the “Saturated concentration of C66” value ([2]; 1% Tween 80 solution) was 1.410 µg/mL. The “Saturated concentration of C66” value ([2]; 2% SDS solution) was 9.046 µg/mL, the “Saturated concentration of C66” value ([2]; 2% Tween 80 solution) was 3.385 µg/mL and the “Saturated concentration of C66” value ([2]; 3% SDS solution) was 22.484 µg/mL. For the same compound, the “Saturated concentration of C66” value ([2]; 3% Tween 80 solution) was 15.231 µg/mL, the “Solubility of C66” value ([3]; Ethanol (95%)) was “Slightly soluble” and the “Solubility of C66” value ([3]; Hydrochloric acid solution with a pH of 1.0) was “Almost insoluble or insoluble”. For the same compound, the “Solubility of C66” value ([3]; Phosphate buffer with a pH of 6.8) was “Almost insoluble or insoluble”, the “Solubility of C66” value ([3]; Purified water) was “Almost insoluble or insoluble” and the water solubility ([3]; previous studies) was “poor”. The permeability [4] was “good”, the AUC(0-t) (in vivo; iv, 1 mg/kg, AUC0-t) was 162 ng·h/mL and the AUC(0-t) (in vivo; iv, 1 mg/kg, AUC0-t Mean) was 148 ng·h/mL. The AUC(0-inf) (in vivo; iv, 1 mg/kg, AUC0-∞) was 163 ng·h/mL, the AUC(0-inf) (in vivo; iv, 1 mg/kg, AUC0-∞ Mean) was 149 ng·h/mL and the Cmax (in vivo; iv, 1 mg/kg, Cmax) was 334 ng/mL. It also gave a Cmax (in vivo; iv, 1 mg/kg, Cmax Mean) of 348 ng/mL, an MRT last (in vivo; iv, 1 mg/kg, MRTlast) of 41 min and an MRT last (in vivo; iv, 1 mg/kg, MRTlast Mean) of 35.9 min. The Tmax (in vivo; iv, 1 mg/kg, Tmax) was 4.98 min, the Tmax (in vivo; iv, 1 mg/kg, Tmax Mean) was 4.98 min and the half-life (in vivo; iv, 1 mg/kg, half-life (t1/2)) was ~30 min. The half-life (in vivo; iv, 1 mg/kg, t1/2) was 33.7 min, the half-life (in vivo; iv, 1 mg/kg, t1/2 Mean) was 30.4 min and the AUC(0-t) (in vivo; po, 3 mg/kg, AUC0-t Mean) was 31.8 ng·h/mL. It also gave an AUC(0-inf) (in vivo; po, 3 mg/kg, AUC0-∞ Mean) of 35.8 ng·h/mL, a Cmax (in vivo; po, 3 mg/kg, Cmax Mean) of 15.8 ng/mL and an MRT last (in vivo; po, 3 mg/kg, MRTlast) of 113 min. The MRT last (in vivo; po, 3 mg/kg, MRTlast Mean) was 103 min, the Tmax (in vivo; po, 3 mg/kg, Tmax) was 120 min and the Tmax (in vivo; po, 3 mg/kg, Tmax Mean) was 90 min. It also gave a half-life (in vivo; po, 3 mg/kg, half-life (t1/2)) of ~60 min, a half-life (in vivo; po, 3 mg/kg, t1/2 Mean) of 53.5 min and a Tmax (in vivo; po, 3 mg/kg, time to reach peak concentration (Tmax)) of ~60 min. For the same compound, the “solubility under different pH conditions” value [5] was “not dissolved”, the “Absolute bioavailability (AUC0-t)” value [6] was 7.16% and the “ratio of AUC0-t to AUC0-∞” value ([6]; iv, 1 mg/kg) was 99%. The “Relative bioavailability (AUC0-t)” value ([6]; po, 3 mg/kg) was 15.02%, the “ratio of AUC0-t to AUC0-∞” value ([6]; po, 3 mg/kg) was 88% and the Content [7] was 98.5%. The cumulative dissolution rate ([8]; 3% sodium dodecyl sulfate aqueous solution, particle size D0.9<15 μm) was 25.3%, the “maximum cumulative dissolution rate” value ([8]; different concentrations of CTAB aqueous solution) was 18.9% and the cumulative dissolution rate ([8]; different concentrations of triton X-100 aqueous solution) was 26.3%.
